Here are results for two compounds from paper PMC5146650, “Effect of arginine on oligomerization and stability of N-acetylglutamate synthase” (Scientific Reports, 2016).

Where “and” joins values, the source holds several entries; their conditions need not be identical. Identical values can stand only once.

For experiment [1], the target named is T1, mNAGS-M (Mus musculus, UniProt Q8R4H7).
T1 construct: gene Nags; mature form, mitochondrial targeting signal removed, variable segment kept
T1 sequence (Q8R4H7 51-527): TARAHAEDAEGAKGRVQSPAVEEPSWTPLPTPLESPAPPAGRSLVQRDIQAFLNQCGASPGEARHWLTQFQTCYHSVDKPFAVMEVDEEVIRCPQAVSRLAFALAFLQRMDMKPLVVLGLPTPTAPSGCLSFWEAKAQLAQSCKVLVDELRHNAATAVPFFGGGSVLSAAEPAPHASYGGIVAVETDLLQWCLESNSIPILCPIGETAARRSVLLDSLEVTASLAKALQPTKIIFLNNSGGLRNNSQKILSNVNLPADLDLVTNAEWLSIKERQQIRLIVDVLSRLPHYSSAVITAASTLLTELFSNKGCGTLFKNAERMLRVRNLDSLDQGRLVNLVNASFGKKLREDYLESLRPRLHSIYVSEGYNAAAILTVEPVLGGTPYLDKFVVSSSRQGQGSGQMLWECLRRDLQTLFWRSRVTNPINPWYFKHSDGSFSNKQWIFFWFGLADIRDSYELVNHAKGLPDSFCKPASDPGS
The experiment is described as follows: NAGS activity assay after […] min preincubation at […]-45 °C. Format: biochemical. As to conditions: 1 mM L-arginine; assayed at 30 °C; allosteric activator; range covers mNAGS-M and mNAGS-C.

Experiment [2] addresses T1, mNAGS-M. Description: Thermofluor thermal shift, SYPRO Orange. Format: binding. As to conditions: read-out: change in Tm at 10 mM.
Experiment [3] addresses T2, MmNAGS-K (Maricaulis maris, UniProt Q0ASS9).
T2 construct: gene Mmar10_0365
T2 sequence (Q0ASS9 1-441): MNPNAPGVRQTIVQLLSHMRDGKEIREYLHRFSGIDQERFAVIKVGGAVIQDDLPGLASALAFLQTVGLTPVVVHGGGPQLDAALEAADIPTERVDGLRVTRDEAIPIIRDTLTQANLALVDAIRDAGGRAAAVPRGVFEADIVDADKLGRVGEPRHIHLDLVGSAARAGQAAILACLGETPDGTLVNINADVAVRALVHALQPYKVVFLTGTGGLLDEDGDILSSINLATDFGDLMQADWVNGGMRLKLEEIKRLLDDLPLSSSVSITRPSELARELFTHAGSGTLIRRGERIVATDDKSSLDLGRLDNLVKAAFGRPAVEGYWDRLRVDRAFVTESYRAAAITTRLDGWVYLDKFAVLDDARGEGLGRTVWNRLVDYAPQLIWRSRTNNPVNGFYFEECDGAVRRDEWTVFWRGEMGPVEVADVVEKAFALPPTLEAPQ
The experiment is described as follows: Thermofluor thermal shift, SYPRO Orange. The class given is binding. To be noted: read-out: change in Tm at 10 mM. A general note: Differential scanning fluorimetry follows unfolding on heating by fluorescence.

Experiment [4] has as its target T3, XcNAGS-K (Xanthomonas campestris, UniProt B0RS52).
T3 construct: gene argB
T3 sequence (B0RS52 1-447): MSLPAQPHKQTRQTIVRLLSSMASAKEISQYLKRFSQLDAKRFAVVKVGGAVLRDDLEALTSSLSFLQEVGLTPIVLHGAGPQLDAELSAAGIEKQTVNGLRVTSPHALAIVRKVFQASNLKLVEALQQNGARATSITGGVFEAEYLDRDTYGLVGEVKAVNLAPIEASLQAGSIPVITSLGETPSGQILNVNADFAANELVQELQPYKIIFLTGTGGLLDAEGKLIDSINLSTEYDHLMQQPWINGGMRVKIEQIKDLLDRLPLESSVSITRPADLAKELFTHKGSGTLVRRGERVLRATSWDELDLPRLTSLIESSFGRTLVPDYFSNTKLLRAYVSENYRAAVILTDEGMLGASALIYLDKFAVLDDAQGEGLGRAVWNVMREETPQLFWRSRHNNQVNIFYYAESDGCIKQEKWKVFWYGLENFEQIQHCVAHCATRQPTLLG
Description: sedimentation velocity ultracentrifugation and Thermofluor. The class given is binding. As to conditions: 1 mM L-arginine; 10 mM Tris, 50 mM KCl, 1 mM TCEP, pH 8.0, 20 °C (ultracentrifugation); allosteric.

Experiment [5] deals with T4, mNAGS-C (Mus musculus, UniProt Q8R4H7).
T4 construct: gene Nags; conserved segment only, mitochondrial targeting signal and variable segment removed
T4 sequence (Q8R4H7 84-527 limits assumed): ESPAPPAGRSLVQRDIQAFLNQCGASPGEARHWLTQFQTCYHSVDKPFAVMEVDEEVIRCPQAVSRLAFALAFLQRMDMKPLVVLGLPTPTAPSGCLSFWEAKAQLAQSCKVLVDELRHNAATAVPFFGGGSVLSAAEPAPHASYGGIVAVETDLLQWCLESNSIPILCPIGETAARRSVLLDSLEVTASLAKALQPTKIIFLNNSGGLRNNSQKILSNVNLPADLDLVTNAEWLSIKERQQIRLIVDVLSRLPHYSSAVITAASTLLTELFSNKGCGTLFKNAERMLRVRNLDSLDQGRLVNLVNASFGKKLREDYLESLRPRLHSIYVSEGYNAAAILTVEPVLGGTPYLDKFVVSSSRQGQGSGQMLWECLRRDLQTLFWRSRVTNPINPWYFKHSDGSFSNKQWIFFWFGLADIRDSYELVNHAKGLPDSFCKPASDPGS
The experiment is described as follows: NAGS activity assay after […] min preincubation at […]-45 °C. The class given is biochemical. To be noted: 1 mM L-arginine; assayed at 30 °C; allosteric activator; range covers mNAGS-M and mNAGS-C.

Experiment [6] addresses T4, mNAGS-C. The experiment is described as follows: Thermofluor thermal shift, SYPRO Orange. Format: binding. As to conditions: read-out: change in Tm at 10 mM.
In experiment [7] the target is T5, NgNAGS (Neisseria gonorrhoeae, UniProt Q5FAK7).
T5 construct: gene argA; hexamer
T5 sequence (Q5FAK7 1-436): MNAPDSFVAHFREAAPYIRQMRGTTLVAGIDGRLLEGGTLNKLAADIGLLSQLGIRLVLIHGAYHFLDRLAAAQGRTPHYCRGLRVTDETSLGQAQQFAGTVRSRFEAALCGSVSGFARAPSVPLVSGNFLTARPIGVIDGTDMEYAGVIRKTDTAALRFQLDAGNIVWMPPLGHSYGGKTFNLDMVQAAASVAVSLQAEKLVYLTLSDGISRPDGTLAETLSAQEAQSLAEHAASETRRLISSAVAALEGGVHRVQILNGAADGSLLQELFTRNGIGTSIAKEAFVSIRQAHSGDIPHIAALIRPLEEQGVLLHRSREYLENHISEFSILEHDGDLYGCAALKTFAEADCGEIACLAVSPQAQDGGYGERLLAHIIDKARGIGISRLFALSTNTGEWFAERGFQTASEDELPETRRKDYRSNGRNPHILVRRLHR
Description: Thermofluor thermal shift, SYPRO Orange. Format: binding. As to conditions: read-out: change in Tm at 1 mM.

The target in experiment [8] is bifunctional N-acetylglutamate synthase-kinase from Xanthomonas campestris (Xanthomonas campestris). The experiment is described as follows: AUC; sedimentation velocity, global fit of raw data with explicit Lamm equation solutions and reaction kinetics, tetramer-octamer model (octamer to tetramers); without L-arginine; 35, 26, 17, 12, 9, 4 and 2 uM monomer, 20 °C, 10 mM Tris, 50 mM KCl, 1 mM TCEP.

Experiment [9] has the same target. Description: AUC; sedimentation velocity, sw isotherm fitted to a tetramer-octamer association model (octamer to tetramers); with 1 mM L-arginine; 20 °C, 50,000 rpm, 10 mM Tris, 50 mM KCl, 1 mM TCEP, pH 8.0.
Experiment [10] shares this target. The experiment is described as follows: AUC; sedimentation velocity, c(s) distributions and sw isotherm fitted to a tetramer-octamer association model (octamer to tetramers); without L-arginine; 2-40 uM monomer, 20 °C, 50,000 rpm, 10 mM Tris, 50 mM KCl, 1 mM TCEP, pH 8.0.

In the case of `N=C(N)NCCC[C@H](N)C(=O)O` [L-arginine], the “fold increase of specific activity at 1 mM” value in experiment [1] and in [5] was 1.5- to 4 in each case. The ΔTm at 10000 µM in experiment [2] was approximately 5 °C; in [3] it was approximately 10 °C; in experiment [6], approximately 5 °C. For the same compound, in [4], the “sedimentation velocity ultracentrifugation and Thermofluor” value was “equilibrium between XcNAGS-K tetramers and octamers depends on the presence and binding of L-arginine”. The ΔTm at 1000 µM in experiment [7] is approximately -2.5 °C.
The term Kd denotes the equilibrium constant for the complex coming apart. A higher Kd goes with lower affinity. In general, stoichiometry N refers to the number of molecules, sites or subunits per partner or assembly. Regarding “bifunctional N-acetylglutamate synthase-kinase from Xanthomonas campestris (enzyme)”, in [8], the Kd is 2600 nM, the half-life for the octamer was 45 min and the log10koff was -3.6. This compound also showed a Kd in experiment [9] of 37 µM. Further, in [10], the Kd was found to be 2900 nM; the stoichiometry N was 4 and 8.
